Results taken from patent US8288394B2, “1-(1H-1,2,4-triazol-1-yl)butan-2-ol derivative for pharmaceutical use, and the use of a 1-(1H-1,2,4-triazol-1-yl)butan-2-ol derivative with substantially undefined crystal shape for preparing said 1-(1H-1,2,4-triazol-1-yl)butan-2-ol derivative” (Medichem, S.A., priority 2009, dated 2012).

What was measured:
Type in all cases: physicochemical
[1] = Particle size distribution, laser diffraction (Malvern Mastersizer S, wet); settings: for Particle Size Distribution D50 / Particle Size Distribution D10 / Particle Size Distribution D90: by volume, mean of six; for D[3,2] (Sauter diameter, DMVS): mean diameter by surface area to volume; for Particle Size Distribution D[4,3]: mean diameter by volume
From the text: The particle size parameters measured in the present invention have been obtained by means of laser light diffraction technique, and specifically by means of a Malvern Mastersizer S particle size analyzer having characteristics as set out below. Namely, the laser source used was a 2 milliwatt Helium/neon laser (633 nm wavelength); the detection system was a Fourier Transform lens system; the sample was run using a 2.40 mm lens; the sample unit was a sample unit for wet measurement, and particularly was a MS1-Small volume Sample Dispersion Unit stirred cell. The wet dispersion was prepared by using deionized water as a dispersant, and the dispersion was controlled by stirring the unit cell. […] The characterization parameters (volume distributions) were measured for at least six times for each sample, and the result is a mean of said measured values for each sample.
The sample was run using the 2.40 mm lens. The sample unit was a MS1-Small Volume Sample Dispersion Unit stirred cell. The dispersant was deionized water. The sample particle size distribution was assumed to follow a normal distribution.
Analysis model: polydisperse. Setup presentation: 3_WATERF. Particle R.I.=(1.6800, 0.01). Dispersant R.I.=1.33.
This sample was sonicated for 2 minutes and delivered dropwise to the previously background and corrected measuring cell filled with dispersant (deionized water) until the obscuration reached the desired level. Volume distributions were obtained for at least six measures. For characterization, the values of D10, D50 and D90 (by volume), D[4,3] (mean diameter by volume) and D[3,2] (mean diameter by surface area to volume, or Sauter diameter) were specifically listed, each one being the mean of the six values available for each characterization parameter.
The notation DX [also written as D(v, 0.X)] means that X % of the particles have a diameter less than a specified diameter D. Thus a D90 [or D(v, 0.9)] of 100 μm means that 90% of the particles have a diameter less than 100 μm.

[2] = Particle density by pycnometry; settings: pycnometry at 25° C., n-heptane, mean of three
Method: The particle density experimental values were obtained by means of a pycnometer, specifically a 50 mL glass pycnometer. The measurements were carried out under technical characteristics as set out below. Namely, the determinations were done at 25° C.; the liquid of reference was n-heptane; the measurements were carried out three times, and the result is the mean of said measured values.

[3] = Sphericity factor calculated from density, Sauter diameter and specific surface area
From the text: Flowability affects the ease with which the material is handled during processing into a pharmaceutical product. When the flowability is poor, problems occur with handling and processing during formulation. It is known that the shape of a particle affects its handling and flow properties. However, quantification of particle shape is extremely difficult for irregular and/or micronized particles. One of the most common ways of expressing the degree of irregularity of the particles is by means of the sphericity factor (ΨW), which is generally defined as the ratio between the surface area of a sphere having the same volume as the particle and the surface area of the particle:
[formula] where dv and ds are the equivalent volume and surface diameter, respectively (Part. Part. Syst. Charact. 1996, 13, 368-373).
Because sphericity factors are not calculated for each particle but for an assembly of particles, they have to be based on an average size. Thus, the sphericity factor will then be given by the following equation:
[formula] where SW is the powder specific surface area, ρ is the particle density and DMVS is the surface area mean diameter, also referred to as the mean volume-surface diameter, the Sauter diameter or D[3,2]. The Sauter diameter is defined as the diameter of a sphere that has the same volume/surface area ratio as the particle of interest.
A sphericity factor of 1.0 describes a perfect sphere with the greatest ease of flow (Encapsulated and powdered foods, CRC Press 2005). […] In this regard, sphericity factor values below 0.2 are usually found for low-flowability solids in form of platelets or needles. Therefore, a sphericity factor greater than 0.2 generally indicates an acceptable flowing material.

[4] = BET specific surface area (Micromeritics Gemini V, N2 at 77 K); settings: N2 adsorption at 77 K
From the text: The specific surface area values disclosed in the present invention have been obtained by means of a specific surface area analysis technique based on the BET (Brunauer, Emmett and Teller) theory, which is a well-accepted theory known in the art for the calculation of surface areas of solids by means of measuring their physical adsorption of gas molecules (See S. Brunauer, P. H. Emmett and E. Teller, J. Am. Chem. Soc., 1938, 60, 309). In particular, the specific surface area values measured in the present invention have been calculated from the BET surface area plot obtained by measuring the quantity of nitrogen gas molecules adsorbed by a weighted amount of solid at different relative pressures (P/P0) within the range 0.05-0.3, at 77 K. Precisely, the measurement of the adsorption of gas molecules was carried out by means of a Micromeritics™ Gemini V equipment having the characteristics as set out below. Namely, the gas used for adsorption measure was nitrogen gas. […] The sample for analysis was degassed (at 30° C. for 10 minutes and at 80° C. for one hour). The determination of the adsorption of nitrogen was measured at 77 K and for twelve relative pressures sufficiently dispersed within in the range of 0.05 to 0.3. (i.e. twelve absolute pressures in the range of 38.425 mmHg to 230.000 mmHg relative to a saturated pressure of 764,480 mmHg).
The sample for analysis was degassed at 30° C. for 10 minutes and at 80° C. for one hour.

[5] = listed as prior art micronized voriconazole
[6] = calculated using the measured particle density value
[7] = calculated using the reported crystal density value

| Particle Size Distribution D50 [1] [μm] | D[3,2] (Sauter diameter, DMVS) [1] [μm] | D[3,2] (Sauter diameter, DMVS) [1, 5] | Particle Size Distribution D[4,3] [1] [μm] | Density (experimental particle density ρ) [2] [g/mL] | Density (experimental particle density ρ) [2, 5] | sphericity factor Ψw [3, 6] | sphericity factor Ψw [3, 7] | Particle Size Distribution D10 [1] [μm] | Particle Size Distribution D90 [1] [μm] | Specific Surface Area (BET), Sw [4] [m^2/g] | Structure (SMILES) |
| --- | --- | --- | --- | --- | --- | --- | --- | --- | --- | --- | --- |
| 15.2 | 8.3 | about 8.3 μm | 28.7 | 1.40 | about 1.400 g/cm^3 | – | – | – | – | – | C[C@@H](c1ncncc1F)[C@](O)(Cn1cncn1)c1ccc(F)cc1F [Comparative Example 2, voriconazole, reference compound] |
| 29.7 | 15.4 | – | 44.5 | 1.35 | – | 0.31 | 0.29 | 7.4 | 102.8 | 0.9319 | C[C@@H](c1ncncc1F)[C@](O)(Cn1cncn1)c1ccc(F)cc1F [Example 2, voriconazole] |
| 21.7 | 12.2 | – | 27.3 | 1.33 | – | 0.34 | 0.31 | 6.0 | 56.2 | 1.0997 | C[C@@H](c1ncncc1F)[C@](O)(Cn1cncn1)c1ccc(F)cc1F [Example 3, voriconazole] |
| 22.4 | 12.3 | – | 30.3 | 1.32 | – | 0.34 | 0.31 | 6.0 | 64.0 | 1.0992 | C[C@@H](c1ncncc1F)[C@](O)(Cn1cncn1)c1ccc(F)cc1F [Example 4, voriconazole] |
| 32.3 | 15.8 | – | 42.8 | 1.37 | – | 0.24 | 0.23 | 7.6 | 92.7 | 1.1451 | C[C@@H](c1ncncc1F)[C@](O)(Cn1cncn1)c1ccc(F)cc1F [Example 5, voriconazole] |
| 33.4 | 17.2 | – | 43.3 | 1.40 | – | 0.25 | 0.23 | 8.6 | 92.3 | 0.9769 | C[C@@H](c1ncncc1F)[C@](O)(Cn1cncn1)c1ccc(F)cc1F [Example 6, voriconazole] |
| 25.3 | 14.3 | – | 24.9 | – | – | – | 0.26 | 7.5 | 57.4 | 1.1032 | C[C@@H](c1ncncc1F)[C@](O)(Cn1cncn1)c1ccc(F)cc1F [Example 7, voriconazole] |
| 7.3 | 5.2 | – | 14.2 | – | – | – | 0.50 | 2.5 | 29.9 | 1.5910 | C[C@@H](c1ncncc1F)[C@](O)(Cn1cncn1)c1ccc(F)cc1F [Example 8, voriconazole] |
